Source: patent US9561238B2, “Pharmaceutical compositions comprising estetrol derivatives for use in cancer therapy” (Donesta Bioscience B. V., priority 2002, dated 2017)

Tests used:
[1] = test system: DMH-induced malignant colon tumours; details: previously published; cited from earlier work
[2] = target: human ERα (Homo sapiens (Human), UniProt P03372); assay: Competitive steroid binding assay, ERα; details: preference for binding to ERα protein over ERβ, from Ki values
[3] = test system: DMBA-induced mammary tumours; assay: 7,12-dimethyl-benz(a)anthracene (DMBA)-induced tumour model in rats; type: in vivo, rat
Protocol: In order to further assess the anti-tumour efficacy of the estrogenic substances of the present invention, estetrol was tested in the 7,12-dimethyl-benz(a)anthracene (DMBA)-induced tumour model in rats. This model, originally developed by Huggins et al., 1961 (Nature, 19, 204-207), has been widely used and is a generally accepted model with predictive value for anti-tumour agents in humans.
Eighty-four female Sprague-Dawley rats (Harlan, The Netherlands) were group housed, maintained in a 12-hr light/dark environment, and fed a Soya Free Diet (SDS England) and water ad libitum. Animals were weighed on a weekly basis. One week prior to induction of mammary carcinoma, 12 animals (aged 43 days) were surgically castrated via removal of the ovaries. At the age of 50 days, all animals were administered a single oral dose of 16 mg DMBA to induce tumour development. […]
During the treatment period of 8 weeks, the emergence of palpable tumours and number of tumours were determined weekly. […]

[4] = test system: DMH-induced malignant colon tumours; assay: 1,2 dimethylhydrazine (DMH)-induced colon cancer in ovariectomized female rats; type: in vivo, rat; details: estetrol orally 0.1 to 3.0 mg/kg/day; necropsy 15 weeks after first DMH
Protocol: A study is performed to examine the effect of estetrol on 1,2 dimethylhydrazine (DMH)-induced colon cancer in ovariectomized female rats.
DMH-induced cancer development is chosen as a model of “estrogen-suppressed tumours”, because it mimics the human situation of colon carcinomas closely:
One week prior to induction of colon carcinomas, fifty sexually mature female Sprague-Dawley rats, weighing between 150 and 200 gram (Harlan, The Netherlands), are surgically castrated via removal of the ovaries. During the experiment, rats are maintained in separate plastic cages at 12 hour light/dark cycles and allowed free access to food (Purina chow) and water.
Animals are randomly allocated to one of five groups, each consisting of 10 rats, which, starting three days after ovariectomy and ending at autopsy, receive placebo or estetrol treatment during the experiment as follows: • Group 1 animals receiving placebo oral treatment with 3.0 ml/kg/day vehicle (20% wt/vol solution of hydroxypropyl-beta-cyclodextrin in water); • Group 2 animals receiving estetrol orally at a single daily dose of 0.1 mg/kg; • Group 3 animals receiving estetrol orally at a single daily dose of 0.3 mg/kg; • Group 4 animals receiving estetrol orally at a single daily dose of 1.0 mg/kg; • Group 5 animals receiving estetrol orally at a single daily dose of 3.0 mg/kg. […]

[5] = Agonistic models of in vivo estrogenicity (bone resorption, hot flushing, vaginal cornification), previous studies; details: for in vivo estrogenicity in preventing bone resorption, prevention of hot flushing and vaginal cornification: 0.125 mg/kg/day EE compared with […] E4; for potency in agonistic models of preventing bone resorption, prevention of hot flushing and vaginal cornification: […] EE compared with 0.5 mg/kg/day E4
[6] = test system: DMBA-induced mammary tumours; details: literature; cited from earlier work

Chain of human ERα (P03372 whole entry): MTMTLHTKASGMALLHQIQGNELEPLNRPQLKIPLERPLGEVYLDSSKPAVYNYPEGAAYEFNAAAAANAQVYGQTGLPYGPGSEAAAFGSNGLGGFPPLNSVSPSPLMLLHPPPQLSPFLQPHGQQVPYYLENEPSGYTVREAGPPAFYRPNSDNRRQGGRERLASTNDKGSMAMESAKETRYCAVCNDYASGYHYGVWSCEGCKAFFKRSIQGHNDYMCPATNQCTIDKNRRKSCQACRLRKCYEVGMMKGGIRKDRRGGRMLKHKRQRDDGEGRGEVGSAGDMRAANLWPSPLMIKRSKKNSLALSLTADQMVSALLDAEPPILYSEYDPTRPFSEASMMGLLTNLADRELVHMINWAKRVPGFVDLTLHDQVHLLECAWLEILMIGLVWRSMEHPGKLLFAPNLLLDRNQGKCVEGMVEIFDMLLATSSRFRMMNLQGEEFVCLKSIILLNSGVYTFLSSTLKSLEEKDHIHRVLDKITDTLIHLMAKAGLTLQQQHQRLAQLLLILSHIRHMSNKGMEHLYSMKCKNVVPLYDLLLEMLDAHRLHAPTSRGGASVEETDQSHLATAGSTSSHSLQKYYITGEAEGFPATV

C[C@]12CC[C@@H]3c4ccc(O)cc4CC[C@H]3[C@@H]1CC[C@@H]2O [E2, 17β-estradiol]
protection in the DMH model [1]: confers protection

C[C@]12CC[C@@H]3c4ccc(O)cc4CC[C@H]3[C@@H]1[C@@H](O)[C@@H](O)[C@@H]2O [E4, 1,3,5(10)-estratrien-3,15α,16α,17β-tetrol]
Relative ERα/ERβ preference [2]: 400%
preventing growth of DMBA-induced tumours, compared with tamoxifen ([3]; E4 […] vs tamoxifen 3 mg/kg/day orally): as effective as tamoxifen
number of malignant tumours [4]: declines as a function of increasing the daily oral estetrol dose
in vivo estrogenicity in preventing bone resorption, prevention of hot flushing and vaginal cornification [5]: equipotency
potency in agonistic models of preventing bone resorption, prevention of hot flushing and vaginal cornification [5]: equipotency

C#C[C@]1(O)CC[C@H]2[C@@H]3CCc4cc(O)ccc4[C@H]3CC[C@@]21C [EE, 17α-ethinylestradiol]
in vivo estrogenicity in preventing bone resorption, prevention of hot flushing and vaginal cornification [5]: equipotency
potency in agonistic models of preventing bone resorption, prevention of hot flushing and vaginal cornification [5]: equipotency

CC/C(=C(\c1ccccc1)c1ccc(OCCN(C)C)cc1)c1ccccc1 [tamoxifen]
development of mammary tumours ([3]; tamoxifen 3 mg/kg/day orally, 8 weeks): inhibiting the development of mammary tumours
anti-tumour treatment in the DMBA model [6]: effective anti-tumour treatments
